Source: patent US7053070B2, “Pyrido[2,3-d]pyrimidine-2,7-diamine kinase inhibitors” (Warner-Lambert Company, priority 2000, dated 2006)

Tests used:
cdk2/cyclinA = cdk2/cyclinA (Homo sapiens, UniProt P24941); assay: Cyclin dependent kinase 2 assay (cdk2/cyclinA), 32P incorporation, filter plate; format: biochemical; settings: retinoblastoma substrate, 12 mM ATP, 25° C., 15 minutes; read-out: Inhibition of Cdks: IC50 Cdk2/A
Outline: (§1)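 Radiometric filter assay: 20 ng cdk1/B, cdk2/A or cdk2/E with 1 μg retinoblastoma substrate in 20 mM Tris pH 7.4, 50 mM NaCl, 1 mM DTT, 10 mM MgCl2, […] plus [32P]ATP. Started with ATP, 15 min at 25 °C, stopped and precipitated with TCA; 32P incorporation counted for IC50.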

cdk4/cyclinD = cdk4/cyclinD (Homo sapiens, UniProt P11802); assay: Cyclin Dependent Kinase 4 (cdk-4) Assay, 32P incorporation, filter plate; format: biochemical; settings: retinoblastoma substrate, 25 μM ATP, 25° C., 15 minutes; read-out: Inhibition of Cdks: IC50 Cdk4D
Chain of cdk4/cyclinD (P11802 whole entry, species assumed): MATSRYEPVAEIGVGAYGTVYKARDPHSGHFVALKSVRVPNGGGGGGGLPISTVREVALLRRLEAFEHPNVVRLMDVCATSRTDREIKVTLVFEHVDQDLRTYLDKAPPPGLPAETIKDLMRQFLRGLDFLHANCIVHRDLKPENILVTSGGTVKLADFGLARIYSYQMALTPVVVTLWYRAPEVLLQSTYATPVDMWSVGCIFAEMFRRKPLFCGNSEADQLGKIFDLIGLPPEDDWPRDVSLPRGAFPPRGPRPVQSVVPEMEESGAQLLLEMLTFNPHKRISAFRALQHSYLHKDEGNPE
Chain of cdk4/cyclinD (P24385 whole entry partner, species assumed): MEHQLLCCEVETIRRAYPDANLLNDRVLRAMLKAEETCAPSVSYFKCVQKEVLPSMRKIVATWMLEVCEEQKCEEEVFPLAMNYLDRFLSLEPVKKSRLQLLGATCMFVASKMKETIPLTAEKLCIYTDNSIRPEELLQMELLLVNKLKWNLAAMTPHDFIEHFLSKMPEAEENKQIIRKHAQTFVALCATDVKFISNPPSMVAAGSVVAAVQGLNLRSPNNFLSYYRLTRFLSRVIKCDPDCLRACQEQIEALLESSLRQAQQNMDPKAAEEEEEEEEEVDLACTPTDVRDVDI
Outline: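 Filter-plate radiometric assay for IC50s: 20 ng cdk4 with 1 μg retinoblastoma substrate in 20 mM TRIS pH 7.4, 50 mM NaCl, 1 mM DTT, 10 mM MgCl2. Started with 25 μM ATP plus [32P]ATP and run 15 min at 25° C, then stopped with TCA. Precipitated substrate was washed and 32P incorporation counted.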

[1] = target: T1, PDGF-β receptor tyrosine kinase (PDGFr) (Mus musculus, UniProt P05622); assay: PDGF Receptor Tyrosine Kinase Assay; format: biochemical; settings: glutamate-tyrosine co-polymer substrate; for IC50: read-out: Inhibition of Tyrosine Kinases: IC50 in parenthesis PDGFr; for inhibition at 50 µM: at 50 μM compound, read-out: Inhibition of Tyrosine Kinases: % Inhibition at 50 μM PDGFr
T1 construct: amplify a fragment of DNA that codes for the intracellular tyrosine kinase domain; made in house; host or cells: SF9 insect cells (baculovirus); crude cell lysate used
T1 sequence (P05622 599-961 limits assumed): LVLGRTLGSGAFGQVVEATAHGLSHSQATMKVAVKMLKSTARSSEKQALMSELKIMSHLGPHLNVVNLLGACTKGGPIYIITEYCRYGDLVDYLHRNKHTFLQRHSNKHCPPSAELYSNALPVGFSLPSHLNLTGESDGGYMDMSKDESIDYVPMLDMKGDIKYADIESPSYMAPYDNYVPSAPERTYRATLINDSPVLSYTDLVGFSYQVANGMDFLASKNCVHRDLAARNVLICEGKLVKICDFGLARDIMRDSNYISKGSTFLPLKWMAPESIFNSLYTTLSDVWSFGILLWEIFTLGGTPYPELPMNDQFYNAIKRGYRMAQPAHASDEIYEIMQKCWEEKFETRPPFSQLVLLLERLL
From the text: (§2) PDGF and FGF Receptor Tyrosine Kinase Assays
(§3) Full-length cDNAs for the mouse PDGF-β and human FGF-1 (flg) receptor tyrosine kinases are obtained from J. Escobedo and prepared as described in J. Biol. Chem. 1991; 262:1482-1487. PCR primers are designed to amplify a fragment of DNA that codes for the intracellular tyrosine kinase domain. The fragment is inserted into a baculovirus vector, cotransfected with AcMNPV DNA, and the recombinant virus isolated. SF9 insect cells are infected with the virus to overexpress the protein, and the cell lysate is used for the assay. Assays are performed in 96-well plates (100 μL/incubation/well), and conditions are optimized to measure the incorporation of ^32P from γ^32P-ATP into a glutamate-tyrosine co-polymer substrate. Briefly, to each well is added 82.5 μL of incubation buffer containing 25 mM Hepes (pH 7.0), 150 mM NaCl, 0.1% Triton X-100, 0.2 mM PMSF, 0.2 mM Na3VO4, 10 mM MnCl2, and 750 μg/mL of Poly (4:1) glutamate-tyrosine followed by 2.5 μL of inhibitor and 5 μL of enzyme lysate (7.5 μg/μL FGF-TK or 6.0 μg/μL PDGF-TK) to initiate the reaction. Following a 10-minute incubation at 25° C. […] of γ^32P-ATP (0.4 μCi plus 50 μM ATP) is added to each well, and samples are incubated for an additional 10 minutes at 25° C. The reaction is terminated by the addition of 100 μL of 30% trichloroacetic acid (TCA) containing 20 mM sodium pyrophosphate and precipitation of material onto glass fiber mats (Wallac). Filters are washed 3 times with 15% TCA containing 100 mM sodium pyrophosphate, and the radioactivity retained on the filters counted in a Wallac 1250 Betaplate reader. Nonspecific activity is defined as radioactivity retained on the filters following incubation of samples with buffer alone (no enzyme). Specific enzymatic activity (enzyme plus buffer) is defined as total activity minus nonspecific activity.

cdk2/cyclinE = cdk2/cyclinE (Homo sapiens, UniProt P24941); assay: Cyclin dependent kinase 2 assay (cdk2/cyclinE), 32P incorporation, filter plate; format: biochemical; settings: retinoblastoma substrate, 12 mM ATP, 25° C., 15 minutes; read-out: Inhibition of Cdks: IC50 Cdk2/E
Outline: as §1

cdk1/cyclinB = cdk1/cyclinB (Homo sapiens, UniProt P06493); assay: Cyclin dependent kinase 1 assay (cdk1/cyclinB), 32P incorporation, filter plate; format: biochemical; settings: retinoblastoma substrate, 12 mM ATP, 25° C., 15 minutes; read-out: Inhibition of Cdks: IC50 Cdk1/B
Chain of cdk1/cyclinB (P06493 whole entry, species assumed): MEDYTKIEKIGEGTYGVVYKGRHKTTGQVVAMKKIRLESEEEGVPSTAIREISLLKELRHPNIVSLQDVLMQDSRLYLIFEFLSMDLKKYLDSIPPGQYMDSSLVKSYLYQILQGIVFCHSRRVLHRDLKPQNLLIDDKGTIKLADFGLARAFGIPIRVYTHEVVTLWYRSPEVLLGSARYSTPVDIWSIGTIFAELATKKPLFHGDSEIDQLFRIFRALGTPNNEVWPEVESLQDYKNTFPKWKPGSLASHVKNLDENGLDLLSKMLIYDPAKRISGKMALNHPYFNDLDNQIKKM
Chain of cdk1/cyclinB (P14635 whole entry partner, species assumed): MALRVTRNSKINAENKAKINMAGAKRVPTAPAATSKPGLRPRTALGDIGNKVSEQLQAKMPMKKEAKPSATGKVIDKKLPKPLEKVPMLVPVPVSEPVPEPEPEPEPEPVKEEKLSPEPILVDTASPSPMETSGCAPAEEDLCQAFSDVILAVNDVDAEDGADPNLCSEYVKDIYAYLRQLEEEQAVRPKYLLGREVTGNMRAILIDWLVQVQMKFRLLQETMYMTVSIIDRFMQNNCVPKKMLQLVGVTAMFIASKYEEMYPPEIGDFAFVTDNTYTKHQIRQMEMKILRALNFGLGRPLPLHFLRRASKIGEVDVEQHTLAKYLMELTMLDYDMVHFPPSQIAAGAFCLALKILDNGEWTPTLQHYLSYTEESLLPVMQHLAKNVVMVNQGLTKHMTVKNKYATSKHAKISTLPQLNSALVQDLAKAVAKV
Outline: as §1

[2] = target: T2, FGF-1 (flg) receptor tyrosine kinase (FGFr) (Homo sapiens, UniProt P11362); assay: FGF Receptor Tyrosine Kinase Assay; format: biochemical; settings: glutamate-tyrosine co-polymer substrate; for IC50: read-out: Inhibition of Tyrosine Kinases: IC50 in parenthesis FGFr; for inhibition at 50 µM: at 50 μM compound, read-out: Inhibition of Tyrosine Kinases: % Inhibition at 50 μM FGFr
T2 construct: amplify a fragment of DNA that codes for the intracellular tyrosine kinase domain; made in house; host or cells: SF9 insect cells (baculovirus); crude cell lysate used
T2 sequence (P11362 478-767 limits assumed): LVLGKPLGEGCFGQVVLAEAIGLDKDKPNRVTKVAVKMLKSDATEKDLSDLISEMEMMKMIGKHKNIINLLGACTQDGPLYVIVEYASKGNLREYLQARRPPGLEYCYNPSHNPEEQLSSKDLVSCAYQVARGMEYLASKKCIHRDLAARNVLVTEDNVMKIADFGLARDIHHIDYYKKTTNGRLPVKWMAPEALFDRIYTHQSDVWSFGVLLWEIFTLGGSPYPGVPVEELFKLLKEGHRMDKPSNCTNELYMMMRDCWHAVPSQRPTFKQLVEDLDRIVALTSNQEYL
From the text: as §2, §3

Cc1cc2cnc(Nc3ccc(N4C[C@@H](C)N[C@@H](C)C4)cc3)nc2nc1NC(=O)NC(C)(C)C [Compound 117, 1-tert-Butyl-3-{2-[4(cis-3,5-dimethyl-piperazin-1-yl)-phenylamino]-6-methyl-pyrido[2,3-d]pyrimidin-7-yl}-urea]
IC50 (cdk2/cyclinA): > 5000 nM
IC50 (cdk4/cyclinD): 76 nM
IC50 [1]: 81 nM
IC50 (cdk2/cyclinE): 4000 nM
IC50 (cdk1/cyclinB): > 5000 nM
IC50 [2]: 61 nM

Cc1cc(Nc2ncc3ccc(NC(=O)Nc4ccc(Cl)cc4)nc3n2)ccc1F [Compound 47, 1-(4-Chloro-phenyl)-3-[2-(4-fluoro-3-methyl-phenylamino)-pyrido[2,3-d]pyrimidin-7-yl]-urea]
IC50 (cdk2/cyclinA): > 5000 nM
melting point: > 250 °C
IC50 (cdk4/cyclinD): > 5000 nM
IC50 (cdk2/cyclinE): > 5000 nM
IC50 (cdk1/cyclinB): > 5000 nM
inhibition at 50 µM [2]: 10.5%

O=C(Nc1ccc2cnc(Nc3ccc(N4CCNCC4)cc3)nc2n1)NC1CCCCC1 [Compound 9, 1-Cyclohexyl-3-[2-(4-piperazin-1-yl-phenylamino)-pyrido[2,3-d]pyrimidin-7-yl]-urea]
IC50 (cdk2/cyclinA): 10 nM
IC50 (cdk4/cyclinD): 5 nM
IC50 (cdk2/cyclinE): 20 nM
IC50 (cdk1/cyclinB): 27 nM
inhibition at 50 µM [2]: 89.8%

CC(C)(C)NC(=O)Nc1ccc2cnc(Nc3ccc(N4CCNCC4)cc3)nc2n1 [Compound 1, 1-tert-Butyl-3-[2-(4-piperazin-1-yl-phenylamino)-pyrido[2,3-d]pyrimidin-7-yl]-urea]
IC50 (cdk2/cyclinA): 60 nM
IC50 (cdk4/cyclinD): 6 nM
inhibition at 50 µM [1]: 94.4%
IC50 [1]: 593 nM
IC50 (cdk2/cyclinE): 130 nM
IC50 (cdk1/cyclinB): 219 nM
inhibition at 50 µM [2]: 93.7%

CN(C(=O)NC1CCCCC1)c1ccc2cnc(Nc3ccc(N4CCNCC4)cc3)nc2n1 [Compound 70, 3-Cyclohexyl-1-methyl-1-[2-(4-piperazin-1-yl-phenylamino)-pyrido[2,3-d]pyrimidin-7-yl]-urea]
IC50 (cdk2/cyclinA): 697 nM
melting point: 169 to 175 °C
IC50 (cdk4/cyclinD): 17 nM
IC50 [1]: 536 nM
IC50 (cdk2/cyclinE): 530 nM
IC50 (cdk1/cyclinB): 1450 nM
IC50 [2]: 1150 nM

Cc1cc(Nc2ncc3ccc(NC(=O)NC(C)(C)C)nc3n2)ccc1F [Compound 46, 1-tert-Butyl-3-[2-(4-fluoro-3-methyl-phenylamino)-pyrido[2,3-d]pyrimidin-7-yl]-urea]
melting point: 230 °C (dec.)
IC50 (cdk4/cyclinD): > 5000 nM
inhibition at 50 µM [1]: 17.5%
IC50 (cdk2/cyclinE): 300 nM
IC50 (cdk1/cyclinB): 75 nM
inhibition at 50 µM [2]: 19.5%

CC(C)(C)OC(=O)N1CCN(c2ccc(Nc3ncc4ccc(NC(=O)NC5CCCCC5)nc4n3)cc2)CC1 [Compound 80]
IC50 (cdk2/cyclinA): 92 nM
melting point: 241 °C (dec.)
IC50 (cdk4/cyclinD): 460 nM
IC50 (cdk2/cyclinE): 230 nM
IC50 (cdk1/cyclinB): 461 nM
inhibition at 50 µM [2]: 18.6%

O=C(Nc1nc2nc(Nc3ccc(N4CCNCC4)cc3)ncc2cc1Br)NC1CCCCC1 [Compound 55, 1-[6-Bromo-2-(4-piperazin-1-yl-phenylamino)-pyrido[2,3-d]pyrimidin-7-yl]-3-cyclohexyl-urea]
IC50 (cdk2/cyclinA): > 5000 nM
melting point: 195 °C (dec.)
IC50 (cdk4/cyclinD): 300 nM
IC50 [1]: 33 nM
IC50 (cdk2/cyclinE): > 5000 nM
IC50 (cdk1/cyclinB): > 5000 nM
IC50 [2]: 151 nM

O=C(Nc1nc2nc(Nc3ccc(N4CCNCC4)cc3)ncc2cc1F)NC1CCCCC1 [Compound 11, 1-Cyclohexyl-3-[6-fluoro-2-(4-piperazin-1-yl-phenylamino)-pyrido[2,3-d]pyrimidin-7-yl]-urea]
IC50 (cdk2/cyclinA): 92 nM
IC50 (cdk4/cyclinD): 11 nM
IC50 [1]: 131 nM
IC50 (cdk2/cyclinE): 125 nM
IC50 (cdk1/cyclinB): 159 nM
IC50 [2]: 284 nM

CC(C)(C)NC(=O)Nc1ccc2cnc(Nc3ccccc3)nc2n1 [Compound 45, 1-tert-Butyl-3-(2-phenylamino-pyrido[2,3-d]pyrimidin-7-yl)-urea]
IC50 (cdk2/cyclinA): 54 nM
melting point: 227 °C (dec.)
IC50 (cdk4/cyclinD): 45 nM
inhibition at 50 µM [1]: 21.9%
IC50 (cdk2/cyclinE): 110 nM
IC50 (cdk1/cyclinB): 552 nM
inhibition at 50 µM [2]: 67.4%
